These results are taken from ChEMBL document CHEMBL1201862, “PubChem BioAssay data set” (2004).

The structures appear in SMILES notation.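 How tested: cells in 96-well plates exposed to compound for 48 hours at five concentrations. The concentration for 50% growth inhibition is given as GI50.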 Active and inactive are the calls of the source. No stated cut-off is given here; in the data, active = GI50 up to about 1.1 µM and inactive = higher.

Some test systems named below: ACHN; EKVX; IGROV-1; M14; M19-MEL; Malme-3M; NCI-H226; OVCAR-5; RPMI-8226; RXF 393; SF-268; SK-MEL-28; SK-OV-3; SNB-19; U-251; UO-31.
Common to all, as to experiment: NCI anticancer screen, dose series, 48 h

`C/C(=N/O)c1ccc2c(c1)/C(=N/O)c1cc(/C(C)=N/O)ccc1-2`: the GI50 with ACHN is 8.53 µM (inactive); with EKVX, 7.13 µM (inactive); with IGROV-1 it was 21.1 µM (inactive); in the test on M14 it was 16.4 µM (inactive); in the test with M19-MEL, 19.4 µM (inactive); in the test on Malme-3M it was 11 µM (inactive). In addition, the GI50 in the test with NCI-H226 is 11.2 µM (inactive); in the test with OVCAR-5 it was 17.4 µM (inactive); in the test with RPMI-8226 it was 26.5 µM (inactive); with RXF 393, 23 µM (inactive); with SF-268, 14.9 µM (inactive); in the test with SK-MEL-28 it was 17.3 µM (inactive). The GI50 in the test with SK-OV-3 is 21.4 µM (inactive); in the test on SNB-19, 13.8 µM (inactive); in the test with U-251 it was 15.3 µM (inactive); in the test on UO-31, 15.1 µM (inactive).

With `CC1=CC(=C(c2ccc(N)c(C)c2)c2ccc(N)c(C)c2)C=CC1=N`, the GI50 was 8.45 µM (inactive) in the test on ACHN; 4.89 µM (inactive) in the test with EKVX; 13.4 µM (inactive) with IGROV-1; 4.95 µM (inactive) with M14; 2.65 µM (inactive) in the test with M19-MEL; 2.91 µM (inactive) in the test with Malme-3M. In addition, the GI50 in the test on NCI-H226 is 3.93 µM (inactive); with OVCAR-5, 5.42 µM (inactive); in the test on RPMI-8226 it was 2.18 µM (inactive); in the test with RXF 393, 5.92 µM (inactive); with SF-268, 0.499 µM (active); in the test on SK-MEL-28 it was 5.71 µM (inactive). In addition, the GI50 is 4.66 µM (inactive) with SK-OV-3, 0.689 µM (active) with SNB-19, 0.411 µM (active) in the test with U-251 and 28.3 µM (inactive) with UO-31.

Take `CCCCCCCCCCCCCCCC(=O)NCC(COP(=O)([O-])OCC[N+](C)(C)C)OCC` (stereo not given): the GI50 in the test with ACHN was 15 µM (inactive); in the test with EKVX it was 19.2 µM (inactive); in the test on IGROV-1, 4.54 µM (inactive); with M14 it was 11.5 µM (inactive); in the test with M19-MEL, 4.5 µM (inactive); in the test with Malme-3M it was 16.9 µM (inactive). The GI50 with NCI-H226 was 3.12 µM (inactive); in the test on OVCAR-5, 10 µM (inactive); in the test on RPMI-8226 it was 2.9 µM (inactive); with RXF 393, 2.1 µM (inactive); in the test on SF-268 it was 12.8 µM (inactive); with SK-MEL-28, 21 µM (inactive). For the same molecule, the GI50 in the test with SK-OV-3 is 18 µM (inactive); with SNB-19, 3.71 µM (inactive); in the test on U-251, 4.16 µM (inactive); in the test on UO-31, 18.5 µM (inactive).

Consider `C=CCc1ccc(O)c(-c2cc(C3Oc4c(-c5cc(CC=C)ccc5O)cc(O)cc4[C@@H]3CO)ccc2O)c1` (stereo not given in full), for which the GI50 in the test with ACHN was 36.2 µM (inactive); with EKVX, 64.4 µM (inactive); in the test with IGROV-1, 20.3 µM (inactive); with M14 it was 37.5 µM (inactive); in the test on M19-MEL, 33.4 µM (inactive); in the test on Malme-3M, 50.4 µM (inactive). For the same molecule, the GI50 in the test on NCI-H226 is 53.8 µM (inactive); in the test on OVCAR-5 it was 56.1 µM (inactive); in the test on RPMI-8226, 24.9 µM (inactive); with RXF 393, 21.2 µM (inactive); in the test on SF-268, 30.3 µM (inactive); in the test on SK-MEL-28, 26.7 µM (inactive). For the same molecule, the GI50 was 42.7 µM (inactive) with SK-OV-3, 28.5 µM (inactive) with SNB-19, 25.2 µM (inactive) in the test on U-251 and 40.2 µM (inactive) in the test with UO-31.

Take `COc1ccc(C(=O)C(c2ccc(OC)cc2)C2(O)C(=O)Nc3c(C)cc(Cl)cc32)cc1` (stereo not given): the GI50 in the test on ACHN was > 100 µM (inactive); in the test with EKVX it was > 100 µM (inactive); with IGROV-1 it was 72.8 µM (inactive); in the test with M14, 92 µM (inactive); in the test on M19-MEL it was 20.8 µM (inactive); with Malme-3M, > 100 µM (inactive). In addition, the GI50 with NCI-H226 was 76.6 µM (inactive); in the test on OVCAR-5, > 100 µM (inactive); in the test on RPMI-8226 it was 14.4 µM (inactive); with RXF 393 it was > 100 µM (inactive); with SF-268 it was 82.8 µM (inactive); with SK-MEL-28, > 100 µM (inactive). The GI50 is > 100 µM (inactive) in the test on SK-OV-3, > 100 µM (inactive) with SNB-19, 45.2 µM (inactive) in the test on U-251 and > 100 µM (inactive) with UO-31.
